The source made the active and inactive calls. The rule behind the calls is not given here.
These compounds were tested against SUMO-conjugating enzyme UBC9 (Homo sapiens) (UniProt P63279) (assay: potency of SUMOylation cascade inhibitors, SAR follow-up, biochemical, HTRF, set 2 (AID 485337)). Conditions: in vitro SUMOylation, HTRF read-out.
SUMO-conjugating enzyme UBC9 (Homo sapiens), sequence (P63279 whole entry, looked up): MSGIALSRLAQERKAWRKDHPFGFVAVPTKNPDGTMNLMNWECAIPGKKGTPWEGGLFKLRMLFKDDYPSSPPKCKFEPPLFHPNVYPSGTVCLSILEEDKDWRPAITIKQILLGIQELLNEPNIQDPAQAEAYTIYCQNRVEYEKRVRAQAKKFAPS

Row | Structure (SMILES) | IC50
1 | CCCCCn1c(NC(=O)c2ccco2)c(C(=O)OCC)c2nc3ccccc3nc21 | 14.8 µM
2 | CCCCn1c(NC(=O)c2ccccc2Cl)c(S(=O)(=O)c2ccccc2)c2nc3ccccc3nc21 | 37.6 µM
3 | COc1ccc2c(c1)C(NC(C)=O)C(=O)N2CCOc1ccccc1 (centres undefined) | > 100 µM (inactive)
4 | COc1ccc(CN2C(=O)C(NC(C)=O)c3ccccc32)cc1 (centres undefined) | > 100 µM (inactive)
5 | COc1ccc2c(c1)C(NC(C)=O)C(=O)N2CCc1ccccc1 (centres undefined) | > 100 µM (inactive)
6 | N#Cc1c(NC(=O)c2ccccc2Cl)n(C2CCCCC2)c2nc3ccccc3nc12 | 23.1 µM
7 | N#Cc1c(NC(=O)c2ccccc2Cl)n(Cc2ccccc2)c2nc3ccccc3nc12 | 12.2 µM
8 | CCCCn1c(N)c(S(=O)(=O)c2ccc(C)cc2)c2nc3ccccc3nc21 | 9.28 µM
9 | COc1ccc2c(c1)C(=O)C(=O)N2CCN1CCOCC1 | > 100 µM (inactive)
10 | COc1cc(/C=C2\C(=O)N(c3ccccc3)N=C2C)ccc1OCc1ccccc1 | > 100 µM (inactive)
11 | CCCCn1c(NC(=O)c2ccccc2)c(C#N)c2nc3ccccc3nc21 | 16.4 µM
12 | CC(=O)NC1C(=O)N(CCN2CCOCC2)c2ccc(C)cc21 (centres undefined) | > 100 µM (inactive)
13 | CCCCn1c(NC(=O)c2ccc(Cl)cc2)c(C#N)c2nc3ccccc3nc21 | 22.6 µM
14 | COc1ccc2c(c1)C(NC(C)=O)C(=O)N2CCN1CCOCC1 (centres undefined) | 6.06 µM
15 | COCCn1c(NC(=O)c2ccc(Cl)cc2)c(S(=O)(=O)c2ccc(C)cc2)c2nc3ccccc3nc21 | 78.8 µM
16 | CCCCNC(=O)c1c(NC(=O)c2ccccc2)n(Cc2ccccc2)c2nc3ccccc3nc12 | 30.6 µM
17 | CCCCn1c(NC(=O)c2ccco2)c(S(=O)(=O)c2ccc(C)cc2)c2nc3ccccc3nc21 | 12.5 µM
18 | CCCCn1c(NC(=O)CC)c(S(=O)(=O)c2ccc(C)cc2)c2nc3ccccc3nc21 | inactive
19 | CCCCn1c(NC(=O)c2ccccc2)c(S(=O)(=O)c2ccc(C)cc2)c2nc3ccccc3nc21 | inactive
20 | Cc1cc(C)c2c(c1)C(=O)C(=O)N2CCN1CCOCC1 | > 100 µM (inactive)
21 | COc1cc(/C=C2\C(=O)N(c3ccccc3)N=C2C)ccc1O | > 100 µM (inactive)
22 | CCCN1C(=O)C(NC(C)=O)c2cc(OC)ccc21 (centres undefined) | > 100 µM (inactive)
23 | S=c1[nH]nc(-c2cc(-c3ccccc3)n[nH]2)n1N=Cc1ccc(Br)s1 | inactive
24 | Nc1c(C(=O)NCc2ccco2)c2nc3ccccc3nc2n1Cc1ccccc1 | 31.1 µM
25 | COc1ccc2c(c1)C(NC(C)=O)C(=O)N2CC1COc2ccccc2O1 (centres undefined) | > 100 µM (inactive)
26 | CCCCn1c(NC(C)=O)c(C#N)c2nc3ccccc3nc21 | 3.39 µM
27 | COCCNC(=O)c1c(NC(=O)c2ccccc2)n(Cc2ccccc2)c2nc3ccccc3nc12 | 13.4 µM
28 | COc1cc(/C=C2\C(=O)N(c3ccccc3)N=C2C)ccc1OC(=O)c1cccs1 | > 100 µM (inactive)
29 | CCCCn1c(NC(=O)c2ccco2)c(C#N)c2nc3ccccc3nc21 | 8.06 µM
